This is an account of results in patent publication US5817756A, “Pseudo- and non-peptide bradykinin receptor antagonists” (Scios Inc., priority 1995, dated 1998).

Starred links: 1 amine or outer side, 2 acyl side, 3 side chain; linkers in the order of their positions; H or OH if unused. Non-standard residues stand in square brackets, D forms with d. Residues, ends and D or L forms follow the SMILES beside them. Oic = O=C(O)[C@@H]1C[C@@H]2CCCC[C@@H]2N1; X10 = O=C(C(/C=C/CN[*:1])Cc1ccccc1)[*:2]; X5 = O=C(/C=C/c1cccc(CN[*:1])c1)[*:2]; X11 = O=C(/C=C/C1CCCCC1CN[*:1])[*:2]; X13 = O=C(CCc1cccc(CN[*:1])c1)[*:2]; X2 = O=C(/C=C/c1ccccc1CN[*:1])[*:2]; Hyp = O=C(O)[C@@H]1C[C@@H](O)CN1; X8 = O=C(CCc1ccccc1CN[*:1])[*:2]; dTic = O=C(O)[C@H]1Cc2ccccc2CN1

For the first assay, the target named is T1, human bradykinin B2 receptor (Homo sapiens, UniProt P30411).
T1 construct: The HindIII/XbaI fragment of one full-length clone, 126A, was inserted into pcDNAI neo vector; expressed in transfected cells
T1 sequence (P30411 1-391): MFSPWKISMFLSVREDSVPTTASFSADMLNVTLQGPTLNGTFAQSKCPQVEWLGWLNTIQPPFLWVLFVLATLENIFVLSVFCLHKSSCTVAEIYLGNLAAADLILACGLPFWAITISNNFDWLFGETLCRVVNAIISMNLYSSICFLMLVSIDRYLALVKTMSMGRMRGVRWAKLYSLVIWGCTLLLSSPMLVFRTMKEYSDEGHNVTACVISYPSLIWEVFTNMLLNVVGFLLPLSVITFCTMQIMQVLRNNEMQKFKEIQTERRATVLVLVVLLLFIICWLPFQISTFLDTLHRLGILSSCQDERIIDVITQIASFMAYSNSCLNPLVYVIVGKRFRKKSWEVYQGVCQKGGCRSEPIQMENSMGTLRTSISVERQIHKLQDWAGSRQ
Put plainly: Radioligand binding, H2O.2 cell membranes, 3H-NPC17731. As to conditions: Table 1; 3H-NPC17731; read-out: Radioligand Binding Human 3H17731. As to the method: A human bradykinin B2 receptor was expressed in CHO/K cells. Briefly, approximately 2×10^6 plaques from a human uterus λgt10 cDNA library (Clontech Laboratories; Palo Alto, Calif.) were screened using a PCR fragment containing the coding region of the rat B2 receptor. This probe was generated by random-primed synthesis in the presence of α[^32 P]dATP. Duplicate filters were hybridized overnight at 42° C. in 1M NaCl, 50 mM Tris pH 7.5, 5× Denhardt's, 200 μg/ml salmon sperm DNA, 1% SDS, and 20% formamide. The filters were washed at 65° C. in 1× SSC and 1% SDS. Coincident positively hybridizing plaques were purified and rescreened with the same probe and stringency conditions. EcoRI fragments of positive clones were inserted into Bluescript/KS II+vector (Stratagene; La Jolla, Calif.) for sequence determination.
The nucleotide sequence of the cloned human B2 receptors was determined using double-stranded DNA and the dideoxy chain termination method. Commercially available T3 and T7 oligonucleotides (USB; Cleveland, Ohio) and synthetic 21-mer oligonucleotides (DNA/RNA Synthesizer; applied Biosystems Inc.; Palo Alto, Calif.) from both the known rat sequence and the determined human sequence were used to identify the nucleotide sequence from the 5' untranslated end to the BglII site in the 3' untranslated end of the clone.
CHO/K cells were plated in 2 ml of growth medium (Ham's F12 with 10% FBS) per 6 well plate and incubated at 37° C., 5% CO2 until they were 60% confluent. For each well, 4, 12, and 16 μg of DNA was diluted in 100 μl Opti-MEM I reduced serum medium (Gibco/BRL; Gaithersburg, Md.). 12 μl of TransfectASE reagent (Gibco/BRL) was diluted in a separate aliquot of 100 μl Opti-MEM I. The DNA and TransfecASE solutions were combined, mixed gently, and incubated at 25° C. for 15 minutes. This solution was then diluted to 1 ml with Opti-MEM I. Each well was washed twice with Opti-MEM I and 1 ml of the DNA/TransfectAse complex was added to each well. After a 5 hour incubation at 37° C. and 5% CO2, 1 ml of Ham's F12 with 20% FBS was added to each well and cells were incubated overnight. Media was replaced with growth medium and incubated for additional 24 hours.
This assay measures the ability of a bradykinin antagonist compound to compete for binding to the human B2 receptor with tritiated bradykinin or tritiated NPC17731, a bradykinin analog which is known to bind the B2 receptor and act as a bradykinin antagonist.
H2O.2 cells were grown to confluency in Ham's F12 media containing 10% FBS and 500 μg/ml Geneticin. Growth media was aspirated and the monolayer washed once with Dulbecco's PBS without Ca^++ and Mg^++. Cells were scraped in Dulbecco's PBS and centrifuged at 2,000×g for 10 minutes. Pellets were resuspended in 25 mM TES, 1 mM 1,10-phenanthroline pH 6.8 buffer and homogenized using a Ploytron at setting 5 for 10 seconds. An aliquot was taken for a protein determination using a BioRad protein assay kit. Membranes were centrifuged at 48,000×g for 10 minutes at 4° C. Pellets were resuspended in the TES buffer with 0.1% BSA and 0.014% bacitracin. 0.5 ml aliquots were frozen in liquid N2 and stored at -80° C. for up to 2 weeks.
Membranes from H2O.2 cells previously prepared were thawed at 37° C. and diluted in 25 mM TES, […] 1,10-phenanthroline pH 6.8 containing BSA and bactiracin. […] Non-specific binding was determined with 1 μM bradykinin. The tubes were incubated 90 minutes at 25° C. and the assay was terminated by rapid vacuum filtration onto Whatman GF/B filters presoaked with 0.2% PEI for 3 hours followed by 2×3 ml aliquots of ice-cold 50 mM Tris, pH 7.4. Radioactivity was counted with a Beckman scintillation counter.
For the compound `N=C(N)NCCC[C@@H](N)C(=O)N[C@@H](CCCNC(=N)N)C(=O)NCc1ccccc1/C=C/C(=O)N[C@@H](CO)C(=O)N1Cc2ccccc2C[C@@H]1C(=O)N1[C@H](C(=O)N[C@@H](CCCNC(=N)N)C(=O)O)C[C@@H]2CCCC[C@@H]21` (H-[dR]R[X2]S[dTic][Oic]R-OH), the Ki is 27 nM.

The next assay has as its target T2, bradykinin receptor, guinea pig terminal ileum homogenate (Cavia porcellus, UniProt O70526).
T2 construct: from tissue; host or cells: terminal ileum of male Hartley guinea pigs, washed membrane homogenate
T2 sequence (O70526 1-372): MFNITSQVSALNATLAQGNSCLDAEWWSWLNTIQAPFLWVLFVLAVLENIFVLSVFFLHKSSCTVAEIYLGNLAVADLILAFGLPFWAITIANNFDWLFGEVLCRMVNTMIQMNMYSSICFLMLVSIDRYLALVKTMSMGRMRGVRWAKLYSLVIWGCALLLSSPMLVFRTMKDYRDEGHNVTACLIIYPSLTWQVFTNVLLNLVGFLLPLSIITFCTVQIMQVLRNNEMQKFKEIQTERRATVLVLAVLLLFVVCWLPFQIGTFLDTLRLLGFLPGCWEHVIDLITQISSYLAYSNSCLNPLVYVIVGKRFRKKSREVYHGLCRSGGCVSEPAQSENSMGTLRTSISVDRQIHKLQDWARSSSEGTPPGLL
Put plainly: Guinea pig ileum binding of 3H-bradykinin. As to conditions: Table 1, read-out: Radioligand Binding Guinea Pig. The procedure:
Binding of ^3 H-bradykinin was performed using the method of D. C. Manning, R. Vavrek, J. M. Stewart, and S. H. Snyder, J. Pharmacol. Exp. Ther., (1986) 237:504. The tissues used in the binding assay were terminal ileum from male Hartley guinea pigs (150-350 g). After dissection, tissues were placed in 20 volume of ice-cold buffer A (25 mM TES containing 0.2 g/l of 1,10-phenanthroline adjusted of pH 6.8 with ammonium hydroxide) and homogenized using a Polytron Tissumizer at setting 6 for 15 seconds. The homogenate was centrifuged at 50,000×g for 10 minutes, the supernatant discarded, and the pellet resuspended in ice-cold buffer A by homogenization with the Polytron. Each tissue was homogenized and centrifuged three times. The final pellet was resuspended in buffer A containing bovine serum albumin (1 g/l) and Bacitracin (0.14 g/l) to a final volume of 170 ml/g of the original tissue weight. The binding assay consisted of […] in 12×75 mm polypropylene tubes: 50 μl ^3 H-bradykinin (20,000 dpm, ~0.3 nM in the final assay volume), 100 μl displacing drug in buffer A, and 750 μl tissue homogenate. Each tray contained tubes, to which no drug was added to measure maximum binding and tubes to which bradykinin (1 μM final concentration) had been added, to measure […]. Specific binding accounted for 96-98% total binding. Tubes were incubated for 90 minutes at ambient temperature. The assays were terminated by filtration over Whatman GF/B glass fiber filters that had been pretreated for 2 hours with polyethyleneimine (2 g/l) using a Brandel Tissue Harvester, followed by washing with 4×1 ml aliquots of ice-cold 50 mM Tris, pH 7.4. Filters were dissolved in Ready-Safe Fluor (Beckman) for at least 90 minutes before quantitation by liquid scintillation spectrometry. Kd values were determined using saturation binding and analysis by EBDA (G. A. MacPherson, J. Pharmacol. Methods (1985) 213), followed by LIGAND (P. J. Munson, D. Rodbard, Anal. Biochem. (1980) 220). Ki values were determined using competitive analysis followed by EBDA and LIGAND.
As for `N=C(N)NCCC[C@@H](N)C(=O)N[C@@H](CCCNC(=N)N)C(=O)N1CCC[C@H]1C(=O)N1C[C@H](O)C[C@H]1C(=O)NC/C=C/C(Cc1ccccc1)C(=O)N[C@@H](CO)C(=O)N1Cc2ccccc2C[C@@H]1C(=O)N1[C@H](C(=O)N[C@@H](CCCNC(=N)N)C(=O)O)C[C@@H]2CCCC[C@@H]21` (some centres unmarked) (H-[dR]RP[Hyp][X10]S[dTic][Oic]R-OH), the Ki is 358 nM.

For the compound `N=C(N)NCCC[C@@H](N)C(=O)N[C@@H](CCCNC(=N)N)C(=O)NCc1cccc(/C=C/C(=O)N[C@@H](CO)C(=O)N2Cc3ccccc3C[C@@H]2C(=O)N2[C@H](C(=O)N[C@@H](CCCNC(=N)N)C(=O)O)C[C@@H]3CCCC[C@@H]32)c1` (H-[dR]R[X5]S[dTic][Oic]R-OH), the Ki amounted to 496 nM.

In the case of `N=C(N)NCCC[C@@H](N)C(=O)N[C@@H](CCCNC(=N)N)C(=O)NCc1ccccc1/C=C/C(=O)N[C@@H](CO)C(=O)N1Cc2ccccc2C[C@@H]1C(=O)N1[C@H](C(=O)N[C@@H](CCCNC(=N)N)C(=O)O)C[C@@H]2CCCC[C@@H]21` (H-[dR]R[X2]S[dTic][Oic]R-OH), the Ki came to 120 ± 8 nM.

Consider `C[C@H](NC(=O)/C=C/c1ccccc1CNC(=O)[C@H](CCCNC(=N)N)NC(=O)[C@H](N)CCCNC(=N)N)C(=O)N1Cc2ccccc2C[C@@H]1C(=O)N1[C@H](C(=O)N[C@@H](CCCNC(=N)N)C(=O)O)C[C@@H]2CCCC[C@@H]21` (H-[dR]R[X2]A[dTic][Oic]R-OH), for which the Ki amounted to 278 nM.

With `N=C(N)NCCC[C@@H](N)C(=O)N[C@@H](CCCNC(=N)N)C(=O)NCC1CCCCC1/C=C/C(=O)N[C@@H](CO)C(=O)N1Cc2ccccc2C[C@@H]1C(=O)N1[C@H](C(=O)N[C@@H](CCCNC(=N)N)C(=O)O)C[C@@H]2CCCC[C@@H]21` (some centres unmarked) (H-[dR]R[X11]S[dTic][Oic]R-OH), the Ki was found to be 638 nM.

With `N=C(N)NCCC[C@@H](N)C(=O)N[C@@H](CCCNC(=N)N)C(=O)NCc1ccccc1/C=C/C(=O)N[C@@H](Cc1ccccc1)C(=O)N[C@@H](CO)C(=O)N1Cc2ccccc2C[C@@H]1C(=O)N1[C@H](C(=O)N[C@@H](CCCNC(=N)N)C(=O)O)C[C@@H]2CCCC[C@@H]21` (H-[dR]R[X2]FS[dTic][Oic]R-OH), the Ki stood at 1270 nM.

Turning to `N=C(N)NCCC[C@@H](N)C(=O)N[C@@H](CCCNC(=N)N)C(=O)NCc1cccc(CCC(=O)N[C@@H](CO)C(=O)N2Cc3ccccc3C[C@@H]2C(=O)N2[C@H](C(=O)N[C@@H](CCCNC(=N)N)C(=O)O)C[C@@H]3CCCC[C@@H]32)c1` (H-[dR]R[X13]S[dTic][Oic]R-OH), the Ki was determined as 466 nM.

Take `N=C(N)NCCC[C@@H](N)C(=O)N[C@@H](CCCNC(=N)N)C(=O)NCc1ccccc1CCC(=O)N[C@@H](CO)C(=O)N1Cc2ccccc2C[C@@H]1C(=O)N1[C@H](C(=O)N[C@@H](CCCNC(=N)N)C(=O)O)C[C@@H]2CCCC[C@@H]21` (H-[dR]R[X8]S[dTic][Oic]R-OH): the Ki was found to be 563 nM.

The test system of a further assay is bradykinin-induced contraction of guinea pig ileum longitudinal muscle. The assay is described as follows: Guinea pig ileum contraction assay. Type of assay: cell-based. As to conditions: Schild analysis against bradykinin. The procedure:
Guinea pig intestine was removed and placed in a Petri dish containing Tyrodes solution and cut into 3-4 cm segments.
After equilibration of the tissues, appropriate volumes of bradykinin solutions were cumulatively added to the 10 ml tissue baths to increase the concentration of bradykinin in the bath step-by-step without washing out after each single dose. Higher concentrations were added only after the preceding contraction had reached a steady value. […] Antagonism of bradykinin responses to the presence of antagonist were determined by repeating the cumulative addition procedure for bradykinin after the tissue has been exposed to the antagonist for 5 minutes. Three or four different concentrations of antagonist were studied sequentially in the same preparations. Responses were expressed as a percentage of the maximum […] elicited by bradykinin in the absence of antagonist. pA2 values were calculated by Schild analysis.
For `N=C(N)NCCC[C@@H](N)C(=O)N[C@@H](CCCNC(=N)N)C(=O)N1CCC2(CC1)C(=O)N(CC(=O)N[C@@H](CO)C(=O)N1Cc3ccccc3C[C@@H]1C(=O)N1[C@H](C(=O)N[C@@H](CCCNC(=N)N)C(=O)O)C[C@@H]3CCCC[C@@H]31)CN2c1ccccc1` [HDArgArgX[Ph]CH2 COSerDTicOicArgOH], the “Guinea Pig Ileum Contraction pA2” value worked out at 6.7.

In the case of `N=C(N)NCCC[C@@H](N)C(=O)N[C@@H](CCCNC(=N)N)C(=O)N1CCC2(CC1)C(=O)N(CC(=O)N[C@@H](CO)C(=O)N1Cc3ccccc3C[C@@H]1C(=O)N1[C@H](C(=O)N[C@@H](CCCNC(=N)N)C(=O)O)C[C@@H]3CCCC[C@@H]31)CN2C1CCCCC1` [HDArgArgX[c-C6 H11]CH2 COSerDTicOicArgOH], the “Guinea Pig Ileum Contraction pA2” value is 6.4.
